Test results published in publication PMC5612656, “In vitro and in vivo effects of 2,4 diaminoquinazoline inhibitors of the decapping scavenger enzyme DcpS: Context-specific modulation of SMN transcript levels” (PLoS ONE, 2017).

Test system: spinal cord transcriptome
Test: RNA-Seq of spinal cord tissue from 2B/- and 2B/+ mice
Type: in vivo, mouse
Conditions: 2B-Veh vs 2B-RG3039

Nc1nc(N)c2c(OCC3CCN(Cc4c(Cl)cccc4Cl)CC3)cccc2n1 [RG3039]
log2(fold-change) Gm10309: -1.704
log2(fold-change) Gm11681: -1.051
log2(fold-change) Gm13066: -1.415
log2(fold-change) Gm16316: -0.9137
log2(fold-change) Gm16958: -0.6452
log2(fold-change) Gm21984: -0.8301
log2(fold-change) Gm26645: 0.5748
log2(fold-change) Gp2: 1.536
log2(fold-change) Gpr50: 0.6598
log2(fold-change) Gpx3: -0.9006
log2(fold-change) Gsg2: 1
log2(fold-change) Gstm1: -0.9261
log2(fold-change) Gsx1: 1.082
log2(fold-change) Hbegf: 0.4821
log2(fold-change) Heph: -0.6747
log2(fold-change) Hes5: 1.011
log2(fold-change) Heyl: 0.7294
log2(fold-change) Hif3a: -1.3266
log2(fold-change) Hist1h1c: -0.9093
log2(fold-change) Hist1h4h: -0.4829
log2(fold-change) Hpgd: 1.149
log2(fold-change) Hr: -1.031
log2(fold-change) Hsf3: -1.087
log2(fold-change) Iapp: -0.9349
log2(fold-change) Id3: 0.7631
log2(fold-change) Ier5: 0.6487
log2(fold-change) Igf1: 0.4613
log2(fold-change) Igsf1: 0.614
log2(fold-change) Il12rb1: -1.3
log2(fold-change) Itga6: 0.6885
log2(fold-change) Itgb3: 0.5631
log2(fold-change) Kcna5: -1.0224
log2(fold-change) Kcne4: 0.8611
log2(fold-change) Kdelr3: 0.5886
log2(fold-change) Kdm4dl: -1.255
log2(fold-change) Kif2c: 0.8365
log2(fold-change) Klf15: -1.065
log2(fold-change) Klhl30: 0.8074
log2(fold-change) LRRC8A: -0.627
log2(fold-change) Loxl1: 0.7115
log2(fold-change) Lrrc8a: -0.9652
log2(fold-change) Map3k6: -2.942
log2(fold-change) Matn1: -1.5615
log2(fold-change) Mcm6: 0.8445
log2(fold-change) Mertk: -0.6404
log2(fold-change) Mex3a: 0.9304
log2(fold-change) Mgmt: -0.5604
log2(fold-change) Mki67: 0.4816
log2(fold-change) Mmp14: 0.9436
log2(fold-change) Mrgprd: 1.807
log2(fold-change) Mrpl41: -1.248
log2(fold-change) Mycn: 0.9874
log2(fold-change) Ncan: 0.7942
log2(fold-change) Ncapg: 0.8309
log2(fold-change) Neil3: 0.7885
log2(fold-change) Nes: 0.5009
log2(fold-change) Notum: 0.8827
log2(fold-change) Nusap1: 0.4877
log2(fold-change) Otoa: -1.049
log2(fold-change) Pappa: 0.5579
log2(fold-change) Pbk: 0.5785
log2(fold-change) Pdk4: -1.799
log2(fold-change) Per1: -0.8684
log2(fold-change) Phactr3: -0.7376
log2(fold-change) Phyhd1: -0.7387
log2(fold-change) Pilrb2: -1.585
log2(fold-change) Pirt: 0.7729
log2(fold-change) Pmaip1: -0.9334
log2(fold-change) Pmp2: 1.429
log2(fold-change) Pnpla2: -1.095
log2(fold-change) Pnpla7: -0.626
log2(fold-change) Polr3e: -1.443
log2(fold-change) Ppp1r1b: -1.252
log2(fold-change) Prc1: 0.5813
log2(fold-change) Prodh: -0.8352
log2(fold-change) Pxmp2: -0.9238
log2(fold-change) Pycr1: 1.135
log2(fold-change) Rab11fip1: -0.4528
log2(fold-change) Rasl2-9: -0.693
log2(fold-change) Reg3b: 1.9386
log2(fold-change) Rnase1: -0.7662
log2(fold-change) Rorc: -0.6702
log2(fold-change) Rsad2: 0.8406
log2(fold-change) Scn10a: 1.7
log2(fold-change) Scrg1: -0.8008
log2(fold-change) Sdpr: -0.7672
log2(fold-change) Sds: -2.356
log2(fold-change) Serpinb5: -1.293
log2(fold-change) Serpinh1: 0.3762
log2(fold-change) Sgk1: -1.812
log2(fold-change) Shroom1: -0.6614
log2(fold-change) Slc13a3: 0.4446
log2(fold-change) Slc13a5: 0.8562
